For orientation: IC50 means the concentration at which inhibition is half-maximal. Low values mean greater potency in that assay, high ones weaker potency in that assay.

Experiment [1] concerns the target hCRTH2 receptor (Homo sapiens (Human), UniProt Q9Y5Y4). Kind of experiment: hCRTH2 receptor membranes radioligand (3H-PGD2) displacement assay. The class given is binding. The settings on record: 3H-PGD2 radioligand displacement, HEK293-hCRTH2 membranes. The method, boiled down: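 HEK293-hCRTH2 membranes, 20 μg/well; 3H-PGD2 added at 2.5 nM; binding buffer 50 mM Tris, 10 mM MnCl2, 1 mM EDTA, pH 7.0; 90 min RT; GF/C filtration, scintillation count. Nonspecific binding: PGD2 at […].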
A general note: Loss of bound radioactivity is the signal in a displacement assay; it reports binding, not function.

In experiment [2] the test system is eosinophils. Kind of experiment: Eosinophil shape change assay with human plasma. To be noted: Homo sapiens, Eosinophil, human plasma (50%), PGD2 100 nM activation, antagonistic activity. The class given is cell-based. An excerpt:
Eosinophil Shape Change Assay with Human Plasma
After obtaining informed consent, blood samples were drawn by venipuncture according to the protocol approved by the ethics committee of Basel, Switzerland. Polymorphonuclear leukocytes (containing eosinophils, basophils and neutrophils) were isolated using the Polymorphprep™ method (Axis-Shield). […] The polymorphonuclear cell fraction was harvested and depleted for erythrocytes by hypotonic saline lysis.
The polymorphonuclear cells were resuspended in assay buffer (1×PBS with Ca^2+/Mg^2+ supplemented with 0.1% BSA, 10 mM HEPES, and 10 mM Glucose, pH 7.4) at 5×10^6 cells/ml and stained with anti-CD49d-APC ((APC=Allophycocyanin) for 1 hour at RT. Test compounds, at various concentrations, were preincubated 10 min in human plasma (anticoagulated with a thrombin inhibitor). Then, human plasma was added to the polymorphonuclear cells to 50% of final assay volume with polymorphonuclear cells at 4×10^6 cells/ml. After incubation for 10 minutes at 37° C., the polymorphonuclear cells were activated for 5 min at 37° C. by addition of PGD2 at 100 nM final concentration. Activation was stopped by addition of 0.5 ml paraformaldehyde (1%).
Immediately after fixation with paraformaldehyde, the samples were analyzed by FACSCanto flow cytometer (BD Biosciences) and target cells were identified by their forward-scatter (FSC) and side-scatter (SSC) characteristics. Eosinophils were identified by the anti-CD49d-APC signal and their characteristic side-scatter (SSC) profile. Shape change responses, indicative of eosinophil activation, were quantified as the percent of cells with an increased forward-scatter.

Chain of hCRTH2 receptor (Q9Y5Y4 whole entry): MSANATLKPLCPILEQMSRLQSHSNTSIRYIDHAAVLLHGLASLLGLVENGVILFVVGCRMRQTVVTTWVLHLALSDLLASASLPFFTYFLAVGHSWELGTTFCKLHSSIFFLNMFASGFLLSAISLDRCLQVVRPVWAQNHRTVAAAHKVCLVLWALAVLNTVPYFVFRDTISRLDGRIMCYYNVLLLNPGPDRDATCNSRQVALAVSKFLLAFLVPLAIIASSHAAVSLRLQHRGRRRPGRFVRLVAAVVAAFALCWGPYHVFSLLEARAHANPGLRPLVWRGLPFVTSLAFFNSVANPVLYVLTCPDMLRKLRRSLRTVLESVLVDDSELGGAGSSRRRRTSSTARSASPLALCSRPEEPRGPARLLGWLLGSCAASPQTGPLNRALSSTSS

Turning to `CCOc1ccc(CC(=O)O)cc1-c1ccc(F)c2c1CN(C(=O)CC(C)c1ccc(F)cc1)CC2` (racemic) [Example 278], the IC50 amounted to 3.9 nM in experiment [1] and 19 nM in experiment [2].

On to `CCOc1cc(CC(=O)O)ccc1-c1ccc(F)c2c1CN(C(=O)CC1COc3ccccc31)CC2` (racemic) [Example 235], for which the half-inhibitory concentration (IC50) in experiment [1] was determined as 0.3 nM; in experiment [2] it was 20 nM.

Turning to `CCOc1ccc(CC(=O)O)cc1-c1ccc(F)c2c1CN(C(=O)CC1CCCc3cccnc31)CC2` (racemic) [Example 350], the IC50 in experiment [1] worked out at 8.2 nM; in experiment [2] it was 9 nM.

As for `CCOc1cc(CC(=O)O)ccc1-c1ccc(F)c2c1CN(C(=O)C(C)Cc1ccccn1)CC2` (racemic) [Example 352], the half-inhibitory concentration (IC50) in experiment [1] stood at 8.1 nM; in experiment [2], 103 nM.

Consider `COc1ccc(CC(=O)O)cc1-c1ccc(F)c2c1CN(C(=O)OCc1ccccc1)CC2` [Example 157, 8-(5-Carboxymethyl-2-methoxy-phenyl)-5-fluoro-3,4-dihydro-1H-isoquinoline-2-carboxylic acid benzyl ester], for which the half-inhibitory concentration (IC50) in experiment [1] is 11.7 nM; in experiment [2] it was 153 nM.

Take `COc1cc(CC(=O)O)ccc1-c1ccc(F)c2c1CN(C(=O)COCc1ccccc1Cl)CC2` [Example 193, (4-{2-[2-(2-Chloro-benzyloxy)-acetyl]-5-fluoro-1,2,3,4-tetrahydro-isoquinolin-8-yl}-3-methoxy-phenyl)-acetic acid]: the IC50 in experiment [1] is 1.38 nM; in experiment [2], 94 nM.

As to `CCOc1cc(CC(=O)O)ccc1-c1ccc(F)c2c1CN(C(=O)OCc1cc(Cl)ccc1F)CC2` [Example 408, 8-(4-Carboxymethyl-2-ethoxy-phenyl)-5-fluoro-3,4-dihydro-1H-isoquinoline-2-carboxylic acid 5-chloro-2-fluoro-benzyl ester], the values for the half-inhibitory concentration (IC50) in experiment [1] and in experiment [2] were 2 nM and 8 nM, respectively.

Consider `CCOc1cc(CC(=O)O)ccc1-c1ccc(F)c2c1CN(C(=O)CC(C)(C)c1ccc(F)cc1)CC2` [Example 237, (3-Ethoxy-4-{5-fluoro-2-[3-(4-fluoro-phenyl)-3-methyl-butyryl]-1,2,3,4-tetrahydro-isoquinolin-8-yl}-phenyl)-acetic acid], for which the IC50 in experiment [1] was 0.3 nM; in experiment [2], 9 nM.

Consider `COc1ccc(CC(=O)O)cc1-c1ccc(F)c2c1CN(C(=O)CCCc1ccccc1F)CC2` [Example 45, (3-{5-Fluoro-2-[4-(2-fluoro-phenyl)-butyryl]-1,2,3,4-tetrahydro-isoquinolin-8-yl}-4-methoxy-phenyl)-acetic acid], for which the half-inhibitory concentration (IC50) worked out at 2.9 nM in experiment [1] and 64 nM in experiment [2].

As for `COc1cc(CC(=O)O)ccc1-c1ccc(F)c2c1CN(C(=O)CCc1ccccc1C)CC2` [Example 194, {4-[5-Fluoro-2-(3-o-tolyl-propionyl)-1,2,3,4-tetrahydro-isoquinolin-8-yl]-3-methoxy-phenyl}-acetic acid], the concentration for half-maximal inhibition (IC50) turned out to be 0.75 nM in experiment [1] and 188 nM in experiment [2].

For the compound `COc1ccc(CC(=O)O)cc1-c1ccc(F)c2c1CN(C(=O)CCN1CCc3ccccc31)CC2` [Example 59, {3-[2-(3-2,3-Dihydro-indol-1-yl-propionyl)-5-fluoro-1,2,3,4-tetrahydro-isoquinolin-8-yl]-4-methoxy-phenyl}-acetic acid], the concentration for half-maximal inhibition (IC50) in experiment [1] is 7.4 nM; in experiment [2] it was 182 nM.

On to `COc1cc(CC(=O)O)ccc1-c1ccc(F)c2c1CN(C(=O)CCCc1ccccc1)CC2` [Example 187, {4-[5-Fluoro-2-(4-phenyl-butyryl)-1,2,3,4-tetrahydro-isoquinolin-8-yl]-3-methoxy-phenyl}-acetic acid], for which the IC50 in experiment [1] was determined as 0.89 nM; in experiment [2], 91 nM.

Turning to `CS(=O)(=O)c1ccc(CC(=O)O)cc1-c1ccc(F)c2c1CN(C(=O)[C@@H]1C[C@H]1c1ccccc1)CC2` [Example 29, {3-[5-Fluoro-2-((1R,2R)-2-phenyl-cyclopropanecarbonyl)-1,2,3,4-tetrahydro-isoquinolin-8-yl]-4-methanesulfonyl-phenyl}-acetic acid], the IC50 in experiment [1] was 6.6 nM; in experiment [2], 20 nM.

Take `CCOc1ccc(CC(=O)O)cc1-c1ccc(F)c2c1CN(C(=O)O[C@@H](C)c1ccccc1)CC2` [Example 368, 8-(5-Carboxymethyl-2-ethoxy-phenyl)-5-fluoro-3,4-dihydro-1H-isoquinoline-2-carboxylic acid (S)-1-phenyl-ethyl ester]: the concentration for half-maximal inhibition (IC50) in experiment [1] was 5.5 nM; in experiment [2] it was 46 nM.

Regarding `COc1ccc(CC(=O)O)cc1-c1ccc(F)c2c1CN(C(=O)CCc1c(C)[nH]c3ccccc13)CC2` [Example 61, (3-{5-Fluoro-2-[3-(2-methyl-1H-indol-3-yl)-propionyl]-1,2,3,4-tetrahydro-isoquinolin-8-yl}-4-methoxy-phenyl)-acetic acid], the 50% inhibitory concentration (IC50) in experiment [1] was determined as 8 nM; in experiment [2], 52 nM.

For `CCCOc1ccc(CC(=O)O)cc1-c1ccc(F)c2c1CN(C(=O)OCc1ccccc1)CC2` [Example 197, 8-(5-Carboxymethyl-2-propoxy-phenyl)-5-fluoro-3,4-dihydro-1H-isoquinoline-2-carboxylic acid benzyl ester], the values for the IC50 in experiment [1] and in experiment [2] were 0.28 nM and 24 nM, respectively.

Turning to `COc1ccc(CC(=O)O)cc1-c1ccc(F)c2c1CCN(C(=O)[C@@H]1C[C@H]1c1ccccc1)CC2` (racemic) [Example 36, (±)-{3-[9-Fluoro-3-(trans-2-phenyl-cyclopropanecarbonyl)-2,3,4,5-tetrahydro-1H-benzo[d]azepin-6-yl]-4-methoxy-phenyl}-acetic acid], the IC50 in experiment [1] is 19.9 nM; in experiment [2], more than 1000 nM.

With `CCOc1ccc(CC(=O)O)cc1-c1ccc(F)c2c1CN(C(=O)OCC(C)C)CC2` [Example 377, 8-(5-Carboxymethyl-2-ethoxy-phenyl)-5-fluoro-3,4-dihydro-1H-isoquinoline-2-carboxylic acid isobutyl ester], the IC50 in experiment [1] worked out at 3.4 nM; in experiment [2], 123 nM.

As for `O=C(O)Cc1ccc(OCC(F)F)c(-c2ccc(F)c3c2CN(C(=O)OCc2ccccc2)CC3)c1` [Example 413, 8-[5-Carboxymethyl-2-(2,2-difluoro-ethoxy)-phenyl]-5-fluoro-3,4-dihydro-1H-isoquinoline-2-carboxylic acid benzyl ester], the half-inhibitory concentration (IC50) worked out at 0.8 nM in experiment [1] and 44 nM in experiment [2].

In the case of `CCOc1ccc(CC(=O)O)cc1-c1ccc(F)c2c1CN(C(=O)OCc1cc(Cl)ccc1F)CC2` [Example 402, 8-(5-Carboxymethyl-2-ethoxy-phenyl)-5-fluoro-3,4-dihydro-1H-isoquinoline-2-carboxylic acid 5-chloro-2-fluoro-benzyl ester], the IC50 was found to be 4.3 nM in experiment [1] and 20 nM in experiment [2].

For the compound `COc1ccc(CC(=O)O)cc1-c1ccc(F)c2c1CN(C(=O)CCn1nc(C)c3ccccc31)CC2` [Example 125, (3-{5-Fluoro-2-[3-(3-methyl-indazol-1-yl)-propionyl]-1,2,3,4-tetrahydro-isoquinolin-8-yl}-4-methoxy-phenyl)-acetic acid], the figures for the IC50 in experiment [1] and in experiment [2] were 16.3 nM and 113 nM, respectively.

As for `CCOc1ccc(CC(=O)O)cc1-c1ccc(F)c2c1CN(C(=O)OCc1cccc(F)c1)CC2` [Example 399, 8-(5-Carboxymethyl-2-ethoxy-phenyl)-5-fluoro-3,4-dihydro-1H-isoquinoline-2-carboxylic acid 3-fluoro-benzyl ester], the half-inhibitory concentration (IC50) in experiment [1] was found to be 4.7 nM; in experiment [2], 29 nM.

On to `CCOc1ccc(CC(=O)O)cc1-c1ccc(F)c2c1CN(C(=O)OCc1ncc(C)cc1F)CC2` [Example 366, 8-(5-Carboxymethyl-2-ethoxy-phenyl)-5-fluoro-3,4-dihydro-1H-isoquinoline-2-carboxylic acid 3-fluoro-5-methyl-pyridin-2-ylmethyl ester], for which the concentration for half-maximal inhibition (IC50) in experiment [1] turned out to be 4.2 nM; in experiment [2] it was 65 nM.

As for `O=C(O)Cc1ccc(OC(F)(F)F)c(-c2ccc(F)c3c2CN(C(=O)OCc2ccccc2)CC3)c1` [Example 21, 8-(5-Carboxymethyl-2-trifluoromethoxy-phenyl)-5-fluoro-3,4-dihydro-1H-isoquinoline-2-carboxylic acid benzyl ester], the results for the 50% inhibitory concentration (IC50) in experiment [1] and in experiment [2] were 2.19 nM and 64 nM, respectively.

For the compound `COc1ccc(CC(=O)O)cc1-c1cc(F)c(F)c2c1CN(C(=O)[C@@H]1C[C@H]1c1ccccc1)CC2` [Example 84, {3-[5,6-Difluoro-2-((1R,2R)-2-phenyl-cyclopropanecarbonyl)-1,2,3,4-tetrahydro-isoquinolin-8-yl]-4-methoxy-phenyl}-acetic acid], the figures for the IC50 in experiment [1] and in experiment [2] were 4.82 nM and 5 nM, respectively.

Take `COc1cc(CC(=O)O)ccc1-c1ccc(F)c2c1CN(C(=O)CC(C)(C)c1ccc(F)cc1)CC2` [Example 358, (4-{5-Fluoro-2-[3-(4-fluoro-phenyl)-3-methyl-butyryl]-1,2,3,4-tetrahydro-isoquinolin-8-yl}-3-methoxy-phenyl)-acetic acid]: the IC50 in experiment [1] is 1.1 nM; in experiment [2], 11 nM.

(Values after patent publication US9255090B2, “Heterocyclyl derivatives and their use as prostaglandin D2 receptor modulators” (Actelion Pharmaceuticals Ltd., priority 2012, dated 2016).)
